Literature values in patent US6753016B2, “Preservation of wood products” (Rohm and Haas Company, priority 2001, dated 2004).

Details: aqueous treatment of wood surfaces; compared to conventional chromium(VI) treatment

[Cl][Fe]([Cl])[Cl] [ferric chloride]
protective effect on treated wood in weathering: does not have a protective effect
